From ChEMBL document CHEMBL3044606, “Binding of sodium houttuyfonate analogues to bovine serum albumin revealed by fluoresence quenching study” (Med Chem Res, 2010)

Assays:
Format in all cases: ADME
Settings in all cases: cattle, isolated protein; call rule not given here
Albumin [1] = target: T1, Albumin (Bos taurus, UniProt P02769); assay: Binding affinity to Bos taurus (bovine) serum albumin after 5 min at 37 degC by Stern-Volmer plot analysis
Albumin [2] = target: T1, Albumin; assay: Binding affinity to Bos taurus (bovine) serum albumin assessed as decrease in decrease in absorption at 50 uM after 5 min by UV-Vis spectrophotometric analysis; parameters: scale not given: the % may be the effect or the level left
Albumin [3] = target: T1, Albumin; assay: Binding affinity to Bos taurus (bovine) serum albumin assessed as shift in emission wavelength at 25 to 200 uM after 5 min by fluorimetric analysis
Albumin [4] = target: T1, Albumin; assay: Binding affinity to Bos taurus (bovine) serum albumin after 5 min at 25 degC by Stern-Volmer plot analysis
Albumin [5] = target: T1, Albumin; assay: Binding affinity to Bos taurus (bovine) serum albumin assessed as decrease in fluorescence at 1:25 protein:compound ratio after 5 min by fluorimetric analysis
Albumin [6] = target: T1, Albumin; assay: Binding affinity to Bos taurus (bovine) serum albumin assessed as decrease in fluorescence after 5 min by fluorimetric analysis

T1 sequence (P02769 whole entry): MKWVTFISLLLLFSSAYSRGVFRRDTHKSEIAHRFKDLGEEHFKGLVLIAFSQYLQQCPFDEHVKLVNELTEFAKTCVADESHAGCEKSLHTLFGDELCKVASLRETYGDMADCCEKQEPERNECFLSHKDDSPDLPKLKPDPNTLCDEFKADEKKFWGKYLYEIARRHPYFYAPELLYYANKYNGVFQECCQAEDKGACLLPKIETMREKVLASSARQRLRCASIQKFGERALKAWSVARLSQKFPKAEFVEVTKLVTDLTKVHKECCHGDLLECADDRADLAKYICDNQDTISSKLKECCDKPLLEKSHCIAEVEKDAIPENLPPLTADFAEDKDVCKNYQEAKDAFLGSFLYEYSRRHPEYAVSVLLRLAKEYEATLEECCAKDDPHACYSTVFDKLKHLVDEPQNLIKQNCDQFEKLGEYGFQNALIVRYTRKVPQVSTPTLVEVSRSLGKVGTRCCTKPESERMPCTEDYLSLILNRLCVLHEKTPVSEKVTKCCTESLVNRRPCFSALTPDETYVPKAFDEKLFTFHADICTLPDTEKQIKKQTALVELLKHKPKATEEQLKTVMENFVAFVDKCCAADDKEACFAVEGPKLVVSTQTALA

Row | KSV (Albumin [1]) [×10³ /M] | Kq (Albumin [1]) [×10¹² /M/s] | Activity (Albumin [2]) [%] | Activity (Albumin [3]) | K (Albumin [4]) [×10⁶ /M] | KSV (Albumin [4]) [×10³ /M] | Kq (Albumin [4]) [×10¹² /M/s] | Activity (Albumin [5]) | Activity (Albumin [6]) | SMILES
1 | 113 | 11.3 | 90 | Not Active | 84.606 | 217.3 | 21.73 | Active | Dose-dependent effect | CCCCCCCCCC(=O)CC(O)S(=O)(=O)[O-].[Na+] (stereo not given) [SODIUM HOUTTUYFONATE]
2 | 529.2 | 52.92 | 50 | Not Active | 691.83 | 381.3 | 38.13 | Active | Dose-dependent effect | CCCCCCCC(=O)CC(O)S(=O)(=O)[O-].[Na+] (stereo not given) [OCTANOYL ACETAL SODIUM SULFITE]
3 | 73.5 | 7.35 | 50 | Not Active | 6.7081 | 36.7 | 3.67 | Not Active | Dose-dependent effect | CCCCCC(=O)CC(O)S(=O)(=O)[O-].[Na+] (stereo not given) [HEXANOYL ACETAL SODIUM SULFITE]
4 | 93.2 | 9.32 | 90 | Not Active | 1360.5 | 121.7 | 12.17 | Active | Dose-dependent effect | CCCCCCCCCCCCCC(=O)CC(O)S(=O)(=O)[O-].[Na+] (stereo not given) [TETRADECANOYL ACETAL SODIUM SULFITE]
5 | 72 | 7.2 | 90 | Not Active | 0.197 | 147.9 | 14.79 | Active | Dose-dependent effect | CCCCCCCCCCCC(=O)CC(O)S(=O)(=O)[O-].[Na+] (stereo not given) [DODECANOYL ACETAL SODIUM SULFITE]
